Here are results for two compounds from ChEMBL document CHEMBL1909622, “Identification of a novel RAMP-independent CGRP receptor antagonist” (Bioorg Med Chem Lett, 2011).

A short description of data set [1]: Clearance in rat at 2 mg/kg, iv and 10 mg/kg, po. The format is ADME, organism-based. The note with it: in vivo.
The nature of data set [2]: Volume of distribution at steady state in rat at 2 mg/kg, iv and 10 mg/kg, po. The format is ADME, organism-based. As to conditions: in vivo, read-out: Vdss.
Data set [3] in a line: Volume of distribution at steady state in dog at 0.5 mg/kg, iv and 1 mg/kg, po. The format is ADME, organism-based, Canis lupus familiaris. The note with it: in vivo, read-out: Vdss.
Data set [4] is described as follows: Half life in dog at 0.5 mg/kg, iv. It is filed as ADME, organism-based, Canis lupus familiaris. Also noted: dose 0.5 mg/kg, route intravenous. As to conditions: in vivo.
Data set [5] in a line: Half life in rat at 2 mg/kg, iv. It is filed as ADME, organism-based. The note with it: in vivo. On the set-up: dose 2 mg/kg, route intravenous.
Data set [6] is described as follows: Oral bioavailability in rat at 10 mg/kg. The note with it: in vivo. The format is ADME, organism-based.
Data set [7] in a line: Oral bioavailability in dog at 1 mg/kg. It is filed as ADME, organism-based, Canis lupus familiaris. The note with it: in vivo.
Data set [8] in a line: Clearance in dog at 0.5 mg/kg, iv and 1 mg/kg, po. It is filed as ADME, organism-based, Canis lupus familiaris. As to conditions: in vivo.
Data set [9] has as its system CGRP receptor (CALCRL/RAMP1) (Homo sapiens). Kind of data set: Ratio Ki for CGRP receptor in human SK-N-MC cells in the absence of MgCl2 to Ki for CGRP receptor in human SK-N-MC cells in the presence of MgCl2.

Turning to `O=C(NCc1cc(F)cc(F)c1)c1nc(N2CCCCS2(=O)=O)cc(Br)c1O`, the clearance was 1.1 mL/min/kg in data set [1] and 5.1 mL/min/kg in data set [8]. The Vd came to 0.4 L/kg in [2] and 3 L/kg in data set [3]. Also, the half-life was 7.1 h in [4] and 5.4 h in data set [5]. Besides, the bioavailability in data set [6] is 26%; in [7], 13%.

In the case of `CC(C)C[C@H](NC(=O)CNC(=O)[C@H](C)NC(=O)[C@H](CC(C)C)NC(=O)[C@H](CCCNC(=N)N)NC(=O)[C@H](Cc1cnc[nH]1)NC(=O)[C@@H](NC(=O)[C@@H](NC(=O)[C@H](CS)NC(=O)[C@@H](NC(=O)[C@H](C)NC(=O)[C@@H](NC(=O)[C@H](CC(=O)O)NC(=O)[C@H](CS)NC(=O)[C@H](C)N)[C@@H](C)O)[C@@H](C)O)C(C)C)[C@@H](C)O)C(=O)N[C@@H](CC(C)C)C(=O)N[C@@H](CO)C(=O)N[C@@H](CCCNC(=N)N)C(=O)N[C@@H](CO)C(=O)NCC(=O)NCC(=O)N[C@H](C(=O)N[C@H](C(=O)N[C@@H](CCCCN)C(=O)N[C@@H](CC(N)=O)C(=O)N[C@@H](CC(N)=O)C(=O)N[C@@H](Cc1ccccc1)C(=O)N[C@H](C(=O)N1CCC[C@H]1C(=O)N[C@H](C(=O)N[C@@H](CC(N)=O)C(=O)N[C@H](C(=O)NCC(=O)N[C@@H](CO)C(=O)N[C@@H](CCCCN)C(=O)N[C@@H](C)C(=O)N[C@@H](Cc1ccccc1)C(N)=O)C(C)C)[C@@H](C)O)C(C)C)C(C)C)C(C)C`, the Ratio Ki in data set [9] was 1.

Usually half-life stands for the time needed for the level to fall by half in the phase considered. Read a low half-life as fast loss. A word on the bioavailability: it is dose-corrected exposure relative to a reference, in per cent. Lower therefore signals poor availability.
